Consider 6 compounds from paper PMC4929432, “The Oligopeptide Permease Opp Mediates Illicit Transport of the Bacterial P-site Decoding Inhibitor GE81112” (Antibiotics, 2016).

In one experiment the test system is ribosome, 16S rRNA wt. The experiment is described as follows: In vitro mRNA translation. It counts as biochemical. The following applies: E. coli AVS69009 16S rRNA wt. How it is done:
(§1) The ribosomal localization of GE81112, as determined by a recent crystallographic study, places this antibiotic in a position that is not too far away from the binding site of kasugamycin [20, 21]. For this reason, some ribosomal mutants bearing 16S rRNA base substitutions that cause kasugamycin resistance were tested for their sensitivity to GE81112 inhibition.
(§2) The 027IF2Cp(A) mRNA and the bacterial S30 cell extracts were prepared as described. The incubation conditions for mRNA translation and for the determination of synthesized product have also been previously described.

The test system of experiment [1] is ribosome, 16S rRNA mutation G926C. The experiment is described as follows: In vitro mRNA translation. Format: biochemical. The note with it: E. coli AVS69009 16S rRNA G926C. How it is done: as §1, §2
For experiment [2], the system named is ribosome, 16S rRNA mutation A794G. The experiment is described as follows: In vitro mRNA translation. The note with it: E. coli AVS69009 16S rRNA A794G. Format: biochemical. How it is done: as §1, §2
The subject of experiment [3] is ribosome, 16S rRNA mutation A1518U. Briefly: In vitro mRNA translation. It counts as biochemical. The note with it: E. coli AVS69009 16S rRNA A1518U. How it is done:
as §1, §2

For experiment [4], the system named is ribosome, 16S rRNA mutation A794U. Briefly: In vitro mRNA translation. It counts as biochemical. The following applies: E. coli AVS69009 16S rRNA A794U. The method, then:
as §1, §2

The test system of experiment [5] is ribosome, 16S rRNA mutation G926U. The experiment is described as follows: In vitro mRNA translation. It counts as biochemical. The note with it: E. coli AVS69009 16S rRNA G926U. How it is done:
as §1, §2

The test system of experiment [6] is ribosome, 16S rRNA mutation G926A. The experiment is described as follows: In vitro mRNA translation. The note with it: E. coli AVS69009 16S rRNA G926A. Format: biochemical. How it is done:
as §1, §2

For a further experiment, the system named is opp expression. The following applies: ref [17],[18]; cited from earlier work.
The subject of the next experiment is glutamine synthetase. The note with it: product of bialaphos hydrolysis; ref [10]; cited from earlier work.
The next experiment has as its system Opp of B. subtilis. The following applies: ref [10]; cited from earlier work.
The test system of experiment [7] is B. subtilis resistant clones. The experiment is described as follows: Cross-resistance of resistant clones. Format: cell-based. The following applies: of 10 GE81112-resistant clones.
For experiment [8], the system named is bacterial peptide transporting systems. The following applies: ref [10]; cited from earlier work. The text has this: Indeed, several peptide transport systems exist in E. coli as well in B. subtilis and the peptides actively transported inside the cells can supp ...
The next experiment concerns Opp. The note with it: ref [17]; cited from earlier work.
Experiment [9] relates to E. coli MG1655 resistant mutants. Briefly: Cross-resistance of resistant mutants. The note with it: of 100 GE81112-resistant colonies; tri-L-ornithine 100 μg/mL. Format: cell-based.
In the next experiment the test system is translation in vivo. The note with it: early studies; ref [16]; cited from earlier work. An excerpt:
(§3) Therefore, the most likely explanation for the observed tri-L-ornithine/GE81112 cross-resistance is that the mutations have inactivated the same transport mechanism that allows these two molecules to enter the cell.

The subject of experiment [10] is mRNA translation in cell-free extracts. The note with it: ref [16]; cited from earlier work.
Excerpt: as §3

The test system of experiment [11] is E. coli SS5012 + pBΦ30 (oppA). Briefly: Growth inhibition halo. It counts as cell-based. The following applies: minimal medium agar, 24 h at 37 °C. How it is done: (§4) The inhibition of bacterial growth by antibiotics was also determined from the diameter of the growth inhibition halo. Bacterial suspensions obtained after overnight growth in minimal medium were diluted and inoculated in 4 mL of Agar–H2O (0.75%) and plated on minimal medium. Ten-microliter spots of the antibiotics were added and the growth inhibition halos measured after 24 h incubation at 37 °C.

Another experiment has as its system E. coli DH5α. Briefly: Growth inhibition halo. It counts as cell-based. The method, then: as §4
Experiment [12] has as its system E. coli SS320 (wt) + pB2 + pBΦ30. Briefly: Growth inhibition halo. Format: cell-based. The following applies: for Halo of Inhibition: minimal medium agar, 24 h at 37 °C. How it is done: as §4
In experiment [13] the test system is E. coli SS5012 + pB2 (oppBCDF). Briefly: Growth inhibition halo. It counts as cell-based. The note with it: minimal medium agar, 24 h at 37 °C. How it is done:
as §4

The test system of experiment [14] is E. coli SS5012 (ΔoppABCDF). Briefly: Growth inhibition halo. Format: cell-based. The following applies: for Halo of Inhibition: minimal medium agar, 24 h at 37 °C. The method, then: as §4
The subject of experiment [15] is E. coli DH5α + pB2 (oppBCDF). Briefly: Growth inhibition halo. The note with it: 10 μg; minimal medium agar; 24 h at 37 °C. Format: cell-based. The method, then:
as §4

For experiment [16], the system named is E. coli DH5α + pBΦ30 + pB2. The experiment is described as follows: Growth inhibition halo. Format: cell-based. The following applies: 10 μg; minimal medium agar; 24 h at 37 °C. The method, then: as §4
Experiment [17] has as its system E. coli DH5α + pBΦ30 (oppA). Briefly: Growth inhibition halo. The following applies: 10 μg; minimal medium agar; 24 h at 37 °C. It counts as cell-based. The method, then:
as §4

Experiment [18] has as its system E. coli SS5012 + pB2 + pBΦ30. Briefly: Growth inhibition halo. The note with it: for Halo of Inhibition: minimal medium agar, 24 h at 37 °C. It counts as cell-based. How it is done:
as §4

A further experiment concerns E. coli MG1655. Briefly: Growth inhibition halo. Format: cell-based. How it is done:
as §4

In the next experiment the test system is E. coli SS320 (wt). The experiment is described as follows: Growth inhibition halo. It counts as cell-based. The note with it: minimal medium agar, 24 h at 37 °C. How it is done:
as §4

Setting [19] is: 10 μg, minimal medium agar, 24 h at 37 °C.

For `C[C@H]1O[C@H](O[C@H]2[C@H](O)[C@@H](O)[C@@H](O)[C@H](O)[C@@H]2O)[C@@H](N)C[C@@H]1NC(=N)C(=O)O` [Kasugamycin], the “IC50 of mRNA Translation” value amounted to 12 µg/mL with ribosome, 16S rRNA wt; 192 µg/mL in experiment [1]; 780 µg/mL in [2]; 880 µg/mL in experiment [3]; 384 µg/mL in experiment [4]; 750 µg/mL in experiment [5]. The “IC50 of mRNA Translation” value in [6] was determined as 390 µg/mL.
Take `CC(C)C[C@H](N)C(=O)O` [L-leucine]: the “effect on opp expression” value with opp expression is “induces opp expression”.
As for `CP(=O)(O)CC[C@H](N)C(=O)O` [phosphinothricin], in the experiment with glutamine synthetase, the “inhibition of glutamine synthetase” value is “inhibits glutamine synthetase”.
For the compound bialaphos, the “active transport by Opp” value in the experiment with Opp of B. subtilis is recorded as “actively transported by Opp”. Further, the “GE81112-resistant clones sensitive to bialaphos” value in experiment [7] is given as “none”. For the same compound, the “active transport with antibacterial effects” value in experiment [8] is “actively transported inside the cell causing antibacterial effects”.
Consider tri-L-alanine, for which the Opp substrate result in the experiment with Opp was “known non-toxic Opp substrate”.
With tri-L-ornithine [Orn3], in [8], the “active transport with antibacterial effects” value is reported as “actively transported inside the cell causing antibacterial effects”. Further, the “number of GE81112-resistant mutants cross-resistant to tri-L-ornithine” value in [9] was determined as 100. Moreover, the “inhibition of translation in vivo” value with translation in vivo is “inhibits translation in vivo”. For the same compound, the “inhibition of mRNA translation in vitro” value in [10] is on record as “unable to inhibit mRNA translation”. Moreover, the “Halo of Inhibition” value is recorded as 0 mm in experiment [11] (1 μg); 0 mm in [11] (10 μg); 0 mm in the experiment on E. coli DH5α (setting [19]); 17 mm in experiment [12] (1 μg); 27 mm in experiment [12] (10 μg); 0 mm in experiment [13] (1 μg). In addition, the “Halo of Inhibition” value in experiment [13] (10 μg) is 0 mm; in experiment [14] (1 μg) it was 0 mm; in [14] (10 μg), 0 mm; in [15] it was 10 mm; in [16], 14 mm; in experiment [17], 11 mm. The “Halo of Inhibition” value in [18] (1 μg) was found to be 18 mm; in [18] (10 μg), 26 mm; in the experiment on E. coli MG1655 (setting [19]), 10 mm; in the experiment with E. coli SS320 (wt) (1 μg), 7 mm; in the experiment on E. coli SS320 (wt) (10 μg), 12 mm. Further, the “growth inhibition, in words” value is reported as “unaffected” in the experiment with E. coli DH5α (E. coli DH5α (Table 4)) and “inhibited” in the experiment with E. coli MG1655 (E. coli MG1655 (Table 4)). The “sensitivity, in words” value is on record as “more sensitive” in experiment [12] (wt transformed with both pBΦ30 and pB2); “sensitive” in experiment [18] (expression in trans of oppA together with oppBCDF). In experiment [14] (E. coli 5012, opp− mutant), the “growth inhibition on minimal medium agar, in words” value is recorded as “insensitive”.
